Test results: patent US4826856A, “Calcium antagonistic dihydropyridine derivative” (Yason s.r.l., priority 1985, dated 1989)
Read-outs that look alike come from different tables or passages of the source.

Key:
Sprague-Dawley rats = assay: Ventricular arrhythmias after re-circulation; type: in vivo, rat
Description: Ventricular arrhythmias after coronary artery ligation in the acute phase or during the period of re-circulation
Sprague-Dawley rats were subjected to ligation of the left coronary artery according to the method of Clark et al. in J. Pharmacol. Methods 3, 357-368, 1980. The drugs were administered by gastric tube 30 minutes before the ligation. By means of a continuous electrocardiographic recording, the ventricular arrhythmias such as ectopic beats (EB), ventricular tachycardia (VT), ventricular fibrillation (VF) for 30 minutes after ligation, were recorded.

[1] = Bioavailability after oral administration in normal volunteers; type: in vivo, human; parameters: AUC: concentration or dose not given beside the values; conditions: for Tmax / Cmax / half-life / AUC: human, plasma, po; for Tmax / Cmax: oral 20 mg
Description: The study was performed in 4 male subjects aged 26-43 years. Pharmacokinetic studies were performed both after acute and repeated administrations. Acute administration […] Further venous blood samples were withdrawn 15-30 minutes and 1.0-1.5-2.0-4.0-6.0-8.0 hours after treatment. Multiple-doses administration […] Blood samples were withdrawn 2-4-8-12 hours after the last treatment.

volunteers = assay: Clinical tolerance of oral treatment in volunteers; type: in vivo, human
Description: The study was performed in 4 male subjects aged 26-43 years.
Each volunteer received one capsule of 20 mg of YS 201 with a glass of water.
The same four volunteers, after the first administration were treated with increasing doses of YS 201: 30-40-50 mg.

CCOC(=O)C1=C(C)NC(C)=C(C(=O)OCCN2CCCCC2)C1c1cccc([N+](=O)[O-])c1 (stereo not drawn) [YS 201, ethyl-(β-piperidinoethyl)-2,6-dimethyl-4-(3-nitrophenyl)-1,4-dihydropyridine-3,5-dicarboxylate]
Death rate % (Sprague-Dawley rats; 7.5 mg/kg p.o.): 10%
EBs, mean value of indices + SEM (Sprague-Dawley rats; 7.5 mg/kg p.o.): 42.8 ± 10.08
VF % (Sprague-Dawley rats; 7.5 mg/kg p.o.): 60%
VF, mean value of indices + SEM (Sprague-Dawley rats; 7.5 mg/kg p.o.): 1.3 ± 0.52
VT, mean value of indices + SEM (Sprague-Dawley rats; 7.5 mg/kg p.o.): 2.2 ± 1.70
Death rate % (Sprague-Dawley rats; 15 mg/kg p.o.): 0%
EBs, mean value of indices + SEM (Sprague-Dawley rats; 15 mg/kg p.o.): 27.20 ± 5.87
VF % (Sprague-Dawley rats; 15 mg/kg p.o.): 50%
VF, mean value of indices + SEM (Sprague-Dawley rats; 15 mg/kg p.o.): 0.6 ± 0.33
VT, mean value of indices + SEM (Sprague-Dawley rats; 15 mg/kg p.o.): 1.2 ± 0.39
decline of plasma profile (compartment analysis) ([1]; acute and repeated administration): declines in one phase
unchanged drug in plasma ([1]; after six hours, acute): still present in the plasma
Tmax ([1]; 20 mg, acute study, read-out: average T max (converted)): 1.5 h
Cmax ([1]; 20 mg, acute study, ±2.65 S.E., read-out: mean peak plasma level): 57.2 ng/mL
half-life ([1]; 20 mg, after acute administration, mean of 4 volunteers, read-out: T1/2 el. (converted)): 1.88 h
half-life ([1]; 20 mg, after acute administration, volunteer 1, read-out: T1/2 el. (converted)): 1.99 h
half-life ([1]; 20 mg, after acute administration, volunteer 2, read-out: T1/2 el. (converted)): 1.05 h
half-life ([1]; 20 mg, after acute administration, volunteer 3, read-out: T1/2 el. (converted)): 1.8 h
half-life ([1]; 20 mg, after acute administration, volunteer 4, read-out: T1/2 el. (converted)): 2.66 h
half-life ([1]; 20 mg, after acute administration, ±0.65 S.D., read-out: mean T1/2 el. / terminal half life (converted)): 1.8 h
Cmax ([1]; 20 mg, mean of 4 volunteers, read-out: C max): 64.8 ng/mL
Tmax ([1]; 20 mg, mean of 4 volunteers, read-out: T max): 1.5 h
Cmax ([1]; 20 mg, volunteer 1, read-out: C max): 56 ng/mL
Tmax ([1]; 20 mg, volunteer 1, read-out: T max): 1.5 h
Cmax ([1]; 20 mg, volunteer 2, read-out: C max): 55 ng/mL
Tmax ([1]; 20 mg, volunteer 2, read-out: T max): 1.5 h
Cmax ([1]; 20 mg, volunteer 3, read-out: C max): 65 ng/mL
Tmax ([1]; 20 mg, volunteer 3, read-out: T max): 2 h
Cmax ([1]; 20 mg, volunteer 4, read-out: C max): 83 ng/mL
Tmax ([1]; 20 mg, volunteer 4, read-out: T max): 1 h
half-life ([1]; after multiple-doses administration, mean of 4 volunteers, read-out: T1/2 el. (converted)): 4.29 h
half-life ([1]; after multiple-doses administration, volunteer 1, read-out: T1/2 el. (converted)): 4.11 h
half-life ([1]; after multiple-doses administration, volunteer 2, read-out: T1/2 el. (converted)): 4.44 h
half-life ([1]; after multiple-doses administration, volunteer 3, read-out: T1/2 el. (converted)): 4.12 h
half-life ([1]; after multiple-doses administration, volunteer 4, read-out: T1/2 el. (converted)): 4.49 h
half-life ([1]; after repeated administration, read-out: mean terminal half life (converted)): 4.29 h
AUC ([1]; mean of 4 volunteers): 252 ng·h/mL
AUC ([1]; volunteer 1): 219 ng·h/mL
AUC ([1]; volunteer 2): 181 ng·h/mL
AUC ([1]; volunteer 3): 269 ng·h/mL
AUC ([1]; volunteer 4): 388 ng·h/mL
plasma level relative to peak ([1]; multiple dose, four hours after administration): reduced to the half
plasma level of unchanged drug vs acute treatment at same time ([1]; multiple dose, two hours after last treatment): three times upper
unchanged drug in plasma ([1]; twelve hours after treatment, multiple dose): still present in the plasma
normal respiratory function and other vital parameters (volunteers; oral): not affected
pathological modification of the arterial pressure (volunteers; oral): not observed
tolerance of oral treatment (volunteers; oral): well tolerated
sinus bradycardia (volunteers; oral, two subjects (n. 3, 4)): moderate but definite sinus bradycardia
atrio-ventricular conduction time (PR interval) (volunteers; subject n. 1, delayed from 0.14 sec.): 0.16 s
atrio-ventricular conduction time (PR interval) (volunteers; subject n. 2, delayed from 0.16 sec.): 0.18 s
atrio-ventricular conduction time (PR interval), change (volunteers; two subjects (n. 1, 2)): slightly prolonged
